From patent US12084420B2, “Indoline compounds for inhibiting KIF18A” (Volastra Therapeutics, Inc., priority 2021, dated 2024)

The compounds below were run against hKIF18A (1-374) (Homo sapiens (Human), UniProt Q8NI77) (assay: Inhibition of KIF18A microtubule-dependent ATPase activity (ADP-Glo)). Settings: not given.
Sequence of hKIF18A (1-374) (Q8NI77 whole entry, looked up): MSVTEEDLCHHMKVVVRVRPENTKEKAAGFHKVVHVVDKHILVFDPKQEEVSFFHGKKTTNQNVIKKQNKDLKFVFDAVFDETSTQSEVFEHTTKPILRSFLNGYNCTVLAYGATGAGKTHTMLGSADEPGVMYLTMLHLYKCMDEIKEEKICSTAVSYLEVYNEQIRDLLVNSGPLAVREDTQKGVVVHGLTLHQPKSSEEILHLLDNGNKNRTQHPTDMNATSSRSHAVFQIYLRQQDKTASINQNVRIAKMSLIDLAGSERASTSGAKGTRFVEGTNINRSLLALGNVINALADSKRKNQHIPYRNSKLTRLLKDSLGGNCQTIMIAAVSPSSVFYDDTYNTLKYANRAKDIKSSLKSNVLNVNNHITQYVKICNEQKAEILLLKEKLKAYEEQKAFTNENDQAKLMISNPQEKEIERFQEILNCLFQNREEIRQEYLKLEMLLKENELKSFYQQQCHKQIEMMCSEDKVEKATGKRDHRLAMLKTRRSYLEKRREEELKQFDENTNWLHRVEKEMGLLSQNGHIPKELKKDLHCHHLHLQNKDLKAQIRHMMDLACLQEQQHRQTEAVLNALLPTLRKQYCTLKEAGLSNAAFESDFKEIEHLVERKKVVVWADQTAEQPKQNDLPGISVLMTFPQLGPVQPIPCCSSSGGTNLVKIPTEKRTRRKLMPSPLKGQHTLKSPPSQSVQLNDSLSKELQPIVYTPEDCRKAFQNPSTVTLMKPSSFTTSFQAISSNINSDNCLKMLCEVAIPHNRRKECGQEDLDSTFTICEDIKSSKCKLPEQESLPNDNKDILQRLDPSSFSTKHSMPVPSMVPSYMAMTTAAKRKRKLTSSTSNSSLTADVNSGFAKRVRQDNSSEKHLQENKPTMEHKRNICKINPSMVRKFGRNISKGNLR
Sequence of hKIF18A (1-374) (Q2XVP4 whole entry partner, looked up): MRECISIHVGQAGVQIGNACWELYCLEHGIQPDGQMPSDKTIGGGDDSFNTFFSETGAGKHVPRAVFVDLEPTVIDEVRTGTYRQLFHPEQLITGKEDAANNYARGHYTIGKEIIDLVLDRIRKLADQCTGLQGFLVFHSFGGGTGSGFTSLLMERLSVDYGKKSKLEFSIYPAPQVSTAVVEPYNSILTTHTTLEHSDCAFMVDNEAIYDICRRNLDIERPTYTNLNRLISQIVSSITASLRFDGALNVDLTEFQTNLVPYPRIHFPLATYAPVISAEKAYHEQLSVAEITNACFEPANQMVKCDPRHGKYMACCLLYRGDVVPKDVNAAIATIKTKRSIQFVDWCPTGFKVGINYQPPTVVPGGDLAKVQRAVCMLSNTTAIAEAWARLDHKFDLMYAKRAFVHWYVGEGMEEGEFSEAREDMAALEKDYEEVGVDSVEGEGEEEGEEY
Sequence of hKIF18A (1-374) (P02554 whole entry partner, looked up): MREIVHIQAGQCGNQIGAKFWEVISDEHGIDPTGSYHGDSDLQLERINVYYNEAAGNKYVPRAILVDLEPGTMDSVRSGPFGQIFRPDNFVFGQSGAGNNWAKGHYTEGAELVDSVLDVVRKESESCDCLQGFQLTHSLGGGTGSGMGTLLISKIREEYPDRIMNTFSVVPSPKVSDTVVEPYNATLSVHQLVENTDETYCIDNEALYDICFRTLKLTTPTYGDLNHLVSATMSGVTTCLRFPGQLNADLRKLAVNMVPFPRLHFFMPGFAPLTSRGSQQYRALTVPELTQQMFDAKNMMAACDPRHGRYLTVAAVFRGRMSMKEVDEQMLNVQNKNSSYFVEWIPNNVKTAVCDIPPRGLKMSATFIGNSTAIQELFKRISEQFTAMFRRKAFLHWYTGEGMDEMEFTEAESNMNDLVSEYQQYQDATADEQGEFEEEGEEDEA

| IC50 | Structure (SMILES) |
| --- | --- |
| 13 nM | CS(=O)(=O)Nc1ccc2c(c1)C1(CCC3(CC3)CC1)CN2C(=O)c1cccc(S(=O)(=O)NC2CC(F)C2)c1 (centres unmarked) [Compound 204, N-(3-fluorocyclobutyl)-3-(5″- (methylsulfonamido)dispiro [cyclopropane-1,1′-cyclohexane-4′,3″- indoline]-1″-carbonyl)benzenesulfonamide] |

Same assay, conditions: KIF18A microtubule-dependent ATPase activity, biochemical assay

| Structure (SMILES) | IC50 |
| --- | --- |
| Cn1cc(S(=O)(=O)NC(C)(C)C)cc1C(=O)N1CC2(CCCCC2)c2cc(NS(C)(=O)=O)ccc21 [Compound 145, N-(tert-butyl)-1-methyl-5-(5′-(methylsulfonamido)spiro[cyclohexane-1,3′-indoline]-1′-carbonyl)-1H-pyrrole-3-sulfonamide] | 290 nM |
| CN(C)S(=O)(=O)c1cccc(C(=O)N2CC3(CCCCC3)c3cc(NS(C)(=O)=O)ccc32)c1 [Compound 42, N,N-dimethyl-3-(5′-(methylsulfonamido)spiro[cyclohexane-1,3′-indoline]-1′-carbonyl)benzenesulfonamide] | 1300 nM |
| O=C(c1cccc(S(=O)(=O)N2CCCCC2)c1)N1CC2(CCCC2)c2c(F)cccc21 [Compound 1′, (4′-fluorospiro[cyclopentane-1,3′-indolin]-1′-yl)(3-(piperidin-1-ylsulfonyl)phenyl)methanone] | 2600 nM |
| O=C(c1cccc(S(=O)(=O)N2CCCC2)c1)N1CC2(CCC3(CC3)CC2)c2ccccc21 [Compound 8, dispiro[cyclopropane-1,1′-cyclohexane-4′,3″-indolin]-1″-yl(3-(pyrrolidin-1-ylsulfonyl)phenyl)methanone] | 940 nM |
| CC(C)(C)NS(=O)(=O)c1cccc(C(=O)N2CC3(CCC4(CC4)CC3)c3cc(Br)ccc32)c1 [Compound 9, 3-(5″-bromodispiro[cyclopropane-1,1′-cyclohexane-4′,3″-indoline]-1″- carbonyl)-N-(tert-butyl)benzenesulfonamide] | 1000 nM |
| CS(=O)(=O)Nc1ccc2c(c1)C1(CCCCC1)CN2C(=O)c1cccc(S(=O)(=O)C2CCCC2)c1 [Compound 50, N-(1′-(3-(cyclopentylsulfonyl)benzoyl)spiro [cyclohexane-1,3′-indolin]-5′-yl)methanesulfonamide] | 72 nM |
| CC(C)(C)CC(O)c1cccc(C(=O)N2CC3(CCC4(CC4)CC3)c3cc(NS(C)(=O)=O)ccc32)c1 (centres unmarked) [Compound 357, N-(1″-(3-(1-hydroxy-3,3-dimethylbutyl)benzoyl)dispiro[cyclopropane-1,1′-cyclohexane-4′,3″-indolin]-5″-yl)methanesulfonamide] | 11 nM |
| CN=S(=O)(c1cccc(C(=O)N2CC3(CCCCC3)c3cc(NS(C)(=O)=O)ccc32)c1)C1CCCC1 (centres unmarked) [Compound 67, N-(1′-(3-(N-methylcyclopentanesulfonimidoyl)benzoyl)spiro[cyclohexane-1,3′-indolin]-5′-yl)methanesulfonamide] | 460 nM |
| CN(c1cccc(C(=O)N2CC3(CCC4(CC4)CC3)c3cc(NS(C)(=O)=O)ccc32)c1)C1CCCC1 [Compound 348, N-(1″-(3-(cyclopentyl(methyl)amino)benzoyl)dispiro[cyclopropane-1,1′-cyclohexane-4′,3″-indolin]-5″- yl)methanesulfonamide] | 190 nM |
| CS(=O)(=O)Nc1ccc2c(c1)C1(CCC3(CC3)CC1)CN2C(=O)c1cccc(S(=O)(=O)NC(CO)C2CC2)c1 (centres unmarked) [Compound 214, N-(1-cyclopropyl-2-hydroxyethyl)-3-(5″- (methylsulfonamido)dispiro[cyclopropane-1,1′-cyclohexane-4′,3″-indoline]-1″-carbonyl)benzenesulfonamide] | 80 nM |
| CCC(CO)NS(=O)(=O)c1cccc(C(=O)N2CC3(CCC4(CC4)CC3)c3cc(NS(C)(=O)=O)ccc32)c1 (centres unmarked) [Compound 208, N-(1-hydroxybutan-2-yl)-3-(5″- (methylsulfonamido)dispiro[cyclopropane-1,1′-cyclohexane-4′,3″-indoline]-1″-carbonyl)benzenesulfonamide] | 64 nM |
| CC(C)(C)NS(=O)(=O)c1cccc(C(=O)N2CC3(CC=CC3)c3cc(NS(C)(=O)=O)ccc32)c1 [Compound 243, N-(tert-butyl)-3-(5′-(methylsulfonamido)spiro[cyclopentane-1,3′-indolin]-3-en-1′-carbonyl)benzenesulfonamide] | 140 nM |
| CS(=O)(=O)c1ccc2c(c1)C1(CCCCC1)CN2C(=O)c1cccc(S(=O)(=O)N2CCCCC2)c1 [Compound 250, (5′-(methylsulfonyl)spiro[cyclohexane-1,3′-indolin]-1′-yl)(3-(piperidin-1-ylsulfonyl)phenyl)methanone] | 670 nM |
| CC(C)(C)NS(=O)(=O)c1ccc(C(=O)N2CC3(CCCCC3)c3cc(NS(C)(=O)=O)ccc32)s1 [Compound 60, N-(tert-butyl)-5-(5′-(methylsulfonamido)spiro[cyclohexane-1,3′-indoline]-1′-carbonyl)thiophene-2-sulfonamide] | 1200 nM |

Other lines, results leading:

| IC50 | Structure (SMILES) |
| --- | --- |
| 48 nM | CC(C)(C)NS(=O)(=O)c1cccc(C(=O)N2CC3(CCC4(CC4)CC3)c3cc(C(O)C(F)(F)F)ccc32)c1 (single isomer, unassigned) [Compound 338a] |
| 44 nM | CCS(=O)(=O)Nc1ccc2c(c1)C1(CCC(F)(F)CC1)CN2C(=O)c1cccc(S(=O)(=O)NC(C)(C)C)c1 [Compound 327, N-(tert-butyl)-3-(5′-(ethylsulfonamido)-4,4-difluorospiro[cyclohexane-1,3′-indoline]-1′-carbonyl)benzenesulfonamide] |
| 56 nM | CS(=O)(=O)Nc1ccc2c(c1)C1(CCC3(CC3)CC1)CN2C(=O)c1cccc(S(=O)(=O)NC2COC2)c1 [Compound 174, 3-(5″- (methylsulfonamido)dispiro[cyclopropane-1,1′-cyclohexane-4′,3″-indoline]-1″-carbonyl)-N-(oxetan-3-yl)benzenesulfonamide] |
| 14 nM | O=C(c1cccc(S(=O)(=O)NC2CC(F)(F)C2)c1)N1CC2(CCC3(CC3)CC2)c2cc(NS(=O)(=O)CCO)ccc21 [Compound 230, N-(3,3-difluorocyclobutyl)-3-(5″-((2-hydroxyethyl)sulfonamido)dispiro [cyclopropane-1,1′-cyclohexane-4′,3″- indoline]-1″- carbonyl)benzenesulfonamide] |
| 6.3 nM | CS(=O)(=O)Nc1ccc2c(c1)C1(CCC3(CC3)CC1)CN2C(=O)c1ccc(S(=O)(=O)N2CC3(CCC3)C2)o1 [Compound 321, N-(1″-(5-((2-azaspiro[3.3]heptan-2-yl)sulfonyl)furan-2-carbonyl)dispiro[cyclopropane-1,1′-cyclohexane-4′,3″-indolin]-5″- yl)methanesulfonamide] |
| 19 nM | CS(=O)(=O)Nc1ccc2c(c1)C1(CCC3(CC3)CC1)CN2C(=O)c1cccc([C@@H](O)C2CCC2)c1 (single isomer, unassigned) [Compound 313a] |
| 39 nM | CCC1=CCC2(CC1)CN(C(=O)c1cccc(S(=O)(=O)NC(C)(C)C)c1)c1ccc(NS(C)(=O)=O)cc12 (centres unmarked) [Compound 31, N-(tert-butyl)-3-(4-ethyl-5′-(methylsulfonamido)spiro[cyclohexane-1,3′-indolin]-3-en-1′-carbonyl)benzenesulfonamide] |
| 14 nM | CC1(C(O)c2cccc(C(=O)N3CC4(CCC5(CC5)CC4)c4cc(NS(C)(=O)=O)ccc43)c2)CCC1 (centres unmarked) [Compound 354, N-(1″-(3-(hydroxy(1-methylcyclobutyl)methyl)benzoyl)dispiro[cyclopropane-1,1′-cyclohexane-4′,3″-indolin]-5″- yl)methanesulfonamide] |
| 12 nM | CS(=O)(=O)Nc1ccc2c(c1)C1(CCC3(CC3)CC1)CN2C(=O)c1csc(S(=O)(=O)C2CCCC2)c1 [Compound 330, N-(1″-(5-(cyclopentylsulfonyl)thiophene-3-carbonyl)dispiro[cyclopropane-1,1′-cyclohexane-4′,3″-indolin]-5″- yl)methanesulfonamide] |
| 21 nM | CS(=O)(=O)Nc1ccc2c(c1)C1(CCC3(CC3)CC1)CN2C(=O)c1ccnc([C@@H](O)C2CCCC2)c1 (single isomer, unassigned) [Compound 316a] |
| 9.3 nM | CS(=O)(=O)Nc1ccc2c(c1)C1(CCC3(CC3)CC1)CN2C(=O)c1cccc(S(=O)(=O)CC2CCC2)c1 [Compound 335, N-(1″-(3-((cyclobutylmethyl)sulfonyl)benzoyl)dispiro[cyclopropane-1,1′-cyclohexane-4′,3″-indolin]-5″-yl)methanesulfonamide] |
| 34 nM | CS(=O)(=O)Nc1ccc2c(c1)C1(CCC3(CC3)CC1)CN2C(=O)c1cccc(S(=N)(=O)C2CCCC2)c1 (single isomer, unassigned) [Compound 287a] |
| 15 nM | CC(C)(C)NS(=O)(=O)c1cccc(C(=O)N2C[C@]3(CC[C@H](C(F)(F)F)CC3)c3cc(NS(C)(=O)=O)ccc32)c1 [Compound 361a] |
| 7.5 nM | CS(=O)(=O)Nc1ccc2c(c1)C1(CCC3(CC3)CC1)CN2C(=O)c1cccc(S(=O)(=O)NC2CC23CC3)c1 (centres unmarked) [Compound 225, 3-(5″-(methylsulfonamido)dispiro [cyclopropane-1,1′-cyclohexane-4′,3″- indoline]-1″-carbonyl)-N-(spiro[2.2]pentan-1-yl)benzenesulfonamide] |
| 8.5 nM | CS(=O)(=O)Nc1ccc2c(c1)[C@]1(CC[C@@H](C(F)F)CC1)CN2C(=O)c1cccc(S(=O)(=O)NC23CC(C2)C3)c1 [Compound 336a] |
| 38 nM | CCS(=O)(=O)Nc1ccc2c(c1)C1(CCC(F)(F)CC1)CN2C(=O)c1cc(S(=O)(=O)N2CC3(CCC3)C2)cs1 [Compound 272, N-(1′-(4-((2-azaspiro[3.3]heptan-2-yl)sulfonyl)thiophene-2-carbonyl)-4,4-difluorospiro[cyclohexane-1,3′-indolin]-5′-yl)ethanesulfonamide] |
| 4.6 nM | O=C(c1cccc(S(=O)(=O)N2CC3(CCC3)C2)c1)N1CC2(CCC3(CC3)CC2)c2cc(NS(=O)(=O)CCO)ccc21 [Compound 228, N-(1″-(3-((2-azaspiro[3.3]heptan-2-yl)sulfonyl)benzoyl)dispiro[cyclopropane-1,1′-cyclohexane-4′,3″-indolin]-5″- yl)-2-hydroxyethane-1-sulfonamide] |
